Where two headings read alike, the source gives them in different places.
How the values were obtained:
SmChiA = target: T1, SmChiA (Serratia marcescens, UniProt P07254); assay: Chitinase inhibition assay and Ki determination (MU-β-(GlcNAc)2 substrate, Dixon plot), SmChiA; type: biochemical; conditions: for inhibition at 10 µM: 10 μM inhibitor, 10 nM enzyme, 4 μM MU-β-(GlcNAc)2, pH 6.0, 30 °C, 20 min; for Ki: Dixon plot, three substrate concentrations
T1 construct: made in house; host or cells: Escherichia coli BL21(DE3)
T1 sequence (P07254 24-563): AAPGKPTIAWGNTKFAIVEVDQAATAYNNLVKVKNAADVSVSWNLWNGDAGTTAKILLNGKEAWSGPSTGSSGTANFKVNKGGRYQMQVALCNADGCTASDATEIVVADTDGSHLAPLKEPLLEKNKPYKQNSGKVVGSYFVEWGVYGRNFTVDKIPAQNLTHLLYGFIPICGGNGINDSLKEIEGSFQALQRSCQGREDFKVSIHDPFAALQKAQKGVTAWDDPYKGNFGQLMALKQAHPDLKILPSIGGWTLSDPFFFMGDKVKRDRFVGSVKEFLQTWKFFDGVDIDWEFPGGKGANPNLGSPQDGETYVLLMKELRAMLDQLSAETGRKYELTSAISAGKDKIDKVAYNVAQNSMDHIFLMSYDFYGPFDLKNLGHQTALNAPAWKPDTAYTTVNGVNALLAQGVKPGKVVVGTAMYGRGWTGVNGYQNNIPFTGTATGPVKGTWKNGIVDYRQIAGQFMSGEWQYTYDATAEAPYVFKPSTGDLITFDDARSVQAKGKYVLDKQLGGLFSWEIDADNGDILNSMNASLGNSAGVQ
Protocol: (§1) SmChiA was expressed in Escherichia coli BL21(DE3), HsChit1 and OfChi-h were overexpressed in Pichia pastoris GS115. The Escherichia coli BL21(DE3) strain was purchased from TaKaRa Biotech (Dalian, […]) while the Pichia pastoris GS115 strain was obtained from Invitrogen (Thermo Fisher Scientific, CA, USA), both of which were cultured and handled according to the protocols provided by suppliers. All chitinases were purified using immobilised metal ion affinity chromatography as previously described. Briefly, solid ammonium sulphate was slowly added to the culture supernatant to achieve 75% saturation. After incubation at 4 °C for 24 h, the precipitated proteins were collected by centrifugation at 12,000 × g for 30 min at 4 °C. The pellet was resuspended thoroughly in buffer A (20 mM sodium phosphate, 0.5 M sodium chloride, pH 7.4), and the solution was centrifuged again at 12,000 × g for 15 min at 4 °C to remove insoluble material. The clarified supernatant was loaded onto a 5 ml HisTrap™ Crude affinity column (GE Healthcare) that had been pre-equilibrated with buffer A. The column was subsequently washed with buffer A containing 75 mM imidazole to remove non-specifically bound proteins. Recombinant chitinases were eluted using buffer A containing 250 mM imidazole. The expressed proteins were quantified using a BCA protein assay kit (TaKaRa Biotech, China). And their purities were determined by SDS-PAGE and found to be >95% in all cases.
(§2) Chitinase activities for SmChiA, HsChit1 and OfChi-h were determined using 4-methylumbelliferyl-N, N′-diacetyl-β-D-chitobioside (MU-β-(GlcNAc)2) (purchased from Sigma) as a substrate. The final reaction mixture volume used for inhibitor screening was 100 μL, consisting of 10 nM enzyme, 4 μM MU-β-(GlcNAc)2, 10 μM inhibitor, and 2% DMSO in a 20 mM sodium phosphate buffer (pH 6.0). The reaction in the absence of inhibitor was used as a positive control. After incubation at 30 °C for 20 min, 0.5 M sodium carbonate was added to the reaction mixture, and the fluorescence produced by the released 4-MU was quantified with a Varioskan Flash microplate reader (Thermo Fisher Scientific) using excitation and emission wavelengths of 360 and 450 nm, respectively. Experiments were performed in triplicate unless specified otherwise. For Ki value determination, the inhibitor concentration was varied in the above reaction, and different concentrations of substrate (2–8 μM) were used. The amount of released 4-MU was quantified as above, and the Ki value and the mode of inhibition were determined using the Dixon plot.

OfChi-h [1] = target: T2, OfChi-h (Ostrinia furnacalis, UniProt Q4AE59); assay: Chitinase inhibition assay and Ki determination (MU-β-(GlcNAc)2 substrate, Dixon plot), OfChi-h; type: biochemical; conditions: for inhibition at 10 µM: 10 μM inhibitor, 10 nM enzyme, 4 μM MU-β-(GlcNAc)2, pH 6.0, 30 °C, 20 min; for Ki: Dixon plot, substrate 2–8 μM
T2 construct: made in house; host or cells: Pichia pastoris GS115
T2 sequence (Q4AE59 18-553): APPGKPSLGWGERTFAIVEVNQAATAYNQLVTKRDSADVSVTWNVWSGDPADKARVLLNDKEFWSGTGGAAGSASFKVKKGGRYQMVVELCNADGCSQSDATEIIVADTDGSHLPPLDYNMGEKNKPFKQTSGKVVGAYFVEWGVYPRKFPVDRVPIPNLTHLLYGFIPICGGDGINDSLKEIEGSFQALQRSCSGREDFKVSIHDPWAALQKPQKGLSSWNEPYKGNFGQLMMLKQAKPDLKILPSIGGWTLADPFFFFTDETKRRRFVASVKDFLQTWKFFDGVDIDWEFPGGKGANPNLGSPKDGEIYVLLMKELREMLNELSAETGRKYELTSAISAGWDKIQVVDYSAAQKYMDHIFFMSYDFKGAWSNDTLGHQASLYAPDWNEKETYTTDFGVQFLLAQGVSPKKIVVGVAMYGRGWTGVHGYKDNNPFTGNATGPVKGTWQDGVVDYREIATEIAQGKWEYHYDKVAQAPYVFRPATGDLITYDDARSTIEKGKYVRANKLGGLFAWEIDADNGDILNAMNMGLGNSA
Protocol: as §1, §2

HsChit1 = target: T3, HsChit1 (Homo sapiens, UniProt Q13231); assay: Chitinase inhibition assay and Ki determination (MU-β-(GlcNAc)2 substrate, Dixon plot), HsChit1; type: biochemical; conditions: three substrate concentrations
T3 construct: made in house; host or cells: Pichia pastoris GS115
T3 sequence (Q13231 22-466): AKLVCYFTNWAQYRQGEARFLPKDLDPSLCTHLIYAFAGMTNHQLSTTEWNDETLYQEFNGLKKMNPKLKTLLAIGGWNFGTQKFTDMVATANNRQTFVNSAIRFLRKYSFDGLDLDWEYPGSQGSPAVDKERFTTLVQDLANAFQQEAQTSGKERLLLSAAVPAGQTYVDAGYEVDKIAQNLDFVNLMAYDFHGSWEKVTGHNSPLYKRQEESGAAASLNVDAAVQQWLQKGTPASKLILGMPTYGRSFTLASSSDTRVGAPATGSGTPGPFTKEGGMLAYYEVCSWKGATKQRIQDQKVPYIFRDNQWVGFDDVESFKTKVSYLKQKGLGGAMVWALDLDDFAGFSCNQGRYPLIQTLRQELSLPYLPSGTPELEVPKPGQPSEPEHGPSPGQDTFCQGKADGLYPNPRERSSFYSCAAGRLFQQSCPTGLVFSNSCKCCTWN
Protocol: SmChiA was expressed in Escherichia coli BL21(DE3), HsChit1 and OfChi-h were overexpressed in Pichia pastoris GS115. The Escherichia coli BL21(DE3) strain was purchased from TaKaRa Biotech (Dalian, […]) while the Pichia pastoris GS115 strain was obtained from Invitrogen (Thermo Fisher Scientific, CA, USA), both of which were cultured and handled according to the protocols provided by suppliers. All chitinases were purified using immobilised metal ion affinity chromatography as previously described. Briefly, solid ammonium sulphate was slowly added to the culture supernatant to achieve 75% saturation. After incubation at 4 °C for 24 h, the precipitated proteins were collected by centrifugation at 12,000 × g for 30 min at 4 °C. […] The expressed proteins were quantified using a BCA protein assay kit (TaKaRa Biotech, China). And their purities were determined by SDS-PAGE and found to be >95% in all cases.
Chitinase activities for SmChiA, HsChit1 and OfChi-h were determined using 4-methylumbelliferyl-N, N′-diacetyl-β-D-chitobioside (MU-β-(GlcNAc)2) (purchased from Sigma) as a substrate. […] After incubation at 30 °C for 20 min, 0.5 M sodium carbonate was added to the reaction mixture, and the fluorescence produced by the released 4-MU was quantified with a Varioskan Flash microplate reader (Thermo Fisher Scientific) using excitation and emission wavelengths of 360 and 450 nm, respectively. […]

OfChi-h [2] = target: T2, OfChi-h; conditions: read-out: OfChi-h Ki; cited from earlier work

## Cc1cccn2c(=O)c3cc4c(=O)n(Cc5cccnc5)cnc4nc3nc12 [6a]
SmChiA
  inhibition at 10 µM: 98.5 ± 0.2%
  Ki: 0.126 µM
OfChi-h [1]
  inhibition at 10 µM: 99.3 ± 0.2%
  Ki: 58 nM
OfChi-h [1]; 6a Ki versus 5a Ki
  Improvement in inhibitory activity against OfChi-h (Ki) compared to 5a: approximately 15 fold
HsChit1
  Ki: 295 nM

## COc1cc(Cn2cnc3nc4nc5c(C)cccn5c(=O)c4cc3c2=O)cc(OC)c1OC [6e]
SmChiA
  inhibition at 10 µM: 28.2 ± 4.8%
OfChi-h [1]
  inhibition at 10 µM: 96.2 ± 0.3%
  Ki: 65 nM

## Cc1cccn2c(=O)c3cc4c(=O)n(Cc5cnccn5)cnc4nc3nc12 [6c]
SmChiA
  inhibition at 10 µM: 91.5 ± 0.8%
OfChi-h [1]
  inhibition at 10 µM: 95.3 ± 0.5%
  Ki: 294 nM

## Cc1cccn2c(=O)c3cc4c(=O)n(Cc5ccccc5)cnc4nc3nc12 [6d]
SmChiA
  inhibition at 10 µM: 32 ± 1.4%
OfChi-h [1]
  inhibition at 10 µM: 72.5 ± 2.4%
  Ki: 1420 nM

## Cc1cccn2c(=O)c3cc(C(=O)NCc4cccnc4)c(N)nc3nc12 [5a, reference compound]
SmChiA
  Ki: 6.19 ± 0.155 µM
OfChi-h [2]
  Ki: 860 nM

## Cc1cccn2c(=O)c3cc4c(=O)n(Cc5ccc(Cl)c(F)c5)cnc4nc3nc12 [6i]
SmChiA
  inhibition at 10 µM: 31.7 ± 0.2%
OfChi-h [1]
  inhibition at 10 µM: 42.9 ± 1%
  Ki: 2890 nM

## Cc1cccn2c(=O)c3cc4c(=O)n(Cc5ccco5)cnc4nc3nc12 [6k]
SmChiA
  inhibition at 10 µM: 47.5 ± 1.2%
OfChi-h [1]
  inhibition at 10 µM: 86.8 ± 0.8%
  Ki: 1510 nM

## Cc1cccn2c(=O)c3cc4c(=O)n(CCc5c[nH]c6ccccc56)cnc4nc3nc12 [6j]
SmChiA
  inhibition at 10 µM: 42.4 ± 4.1%
OfChi-h [1]
  inhibition at 10 µM: 49.6 ± 2.2%

## C#CCn1cnc2nc3nc4c(C)cccn4c(=O)c3cc2c1=O [6l]
SmChiA
  inhibition at 10 µM: 37.5 ± 2.2%
OfChi-h [1]
  inhibition at 10 µM: 81 ± 0.8%
  Ki: 1340 nM

## COc1ccc(Cn2cnc3nc4nc5c(C)cccn5c(=O)c4cc3c2=O)cc1 [6g]
SmChiA
  inhibition at 10 µM: 30.3 ± 2.7%
OfChi-h [1]
  inhibition at 10 µM: 74 ± 2%
  Ki: 1030 nM

## COc1ccc(Cn2cnc3nc4nc5c(C)cccn5c(=O)c4cc3c2=O)cc1OC [6f]
SmChiA
  inhibition at 10 µM: 34.2 ± 2.5%
OfChi-h [1]
  inhibition at 10 µM: 69.3 ± 4.4%
  Ki: 747 nM

## Cc1cccn2c(=O)c3cc4c(=O)n(Cc5cccc(N)c5)cnc4nc3nc12 [6h]
SmChiA
  inhibition at 10 µM: 37.9 ± 0.4%
OfChi-h [1]
  inhibition at 10 µM: 89 ± 1.5%
  Ki: 276 nM

## Cc1cccn2c(=O)c3cc4c(=O)n(C(C)c5cccnc5)cnc4nc3nc12 (stereo not shown) [6b]
SmChiA
  inhibition at 10 µM: 88.7 ± 2.2%
OfChi-h [1]
  inhibition at 10 µM: 96.8 ± 0.1%
  Ki: 215 nM
